Here are results for 22 molecules from patent US12071434B2, “Heterocyclic compound” (Takeda Pharmaceutical Company Limited, priority 2018, dated 2024).

For this assay, the target named is T1, human orexin type 2 receptor (Homo sapiens, UniProt O43614).
T1 construct: expressed in transfected cells
T1 sequence (O43614 1-444): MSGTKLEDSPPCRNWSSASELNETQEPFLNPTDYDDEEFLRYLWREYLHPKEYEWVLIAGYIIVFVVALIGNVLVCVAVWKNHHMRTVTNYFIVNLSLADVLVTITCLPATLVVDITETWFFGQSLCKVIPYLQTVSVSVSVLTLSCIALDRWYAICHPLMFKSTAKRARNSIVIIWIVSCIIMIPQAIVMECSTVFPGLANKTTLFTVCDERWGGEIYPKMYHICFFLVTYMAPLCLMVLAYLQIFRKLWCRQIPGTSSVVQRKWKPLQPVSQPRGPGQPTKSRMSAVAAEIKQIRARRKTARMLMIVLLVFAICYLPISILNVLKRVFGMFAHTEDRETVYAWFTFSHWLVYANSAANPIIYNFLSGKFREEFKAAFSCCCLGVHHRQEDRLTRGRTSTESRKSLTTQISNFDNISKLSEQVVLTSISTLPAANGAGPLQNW
In words: Measurement of orexin type 2 receptor agonist activity (calcium fluorescence, Fluo-4 AM, FDSS) in CHO cells forcibly expressing human OX2 receptor. It counts as cell-based. Particulars: test compound 3 μM, DMSO = 0%, orexin A (human) 10 nM = 100%. An excerpt: To obtain a cell clone stably expressing human orexin type 2 receptor, human orexin type 2 receptor cDNA was inserted into pcDNA3.1(+) plasmid vector (Invitrogen), and a plasmid DNA for expression of human orexin type 2 receptor (pcDNA3.1(+)/hOX2R) was cloned. The plasmid DNA was introduced into CHO-dhfr cell by an electroporation method, and human orexin type 2 receptor expressing clone cells were obtained by limiting dilution method by using G418 drug resistance as a selection marker.
CHO cells forcibly expressing human OX2 receptor were seeded in each well of 384 well black transparent bottom plate (BD Falcon) at 7,500 cells/well, and cultured for one day in a 5% CO2 incubator at 37° C. After removal of the medium in the cell plate, assay buffer A containing a calcium indicator (HBSS (Thermo Fisher Scientific), 20 mM HEPES (Thermo Fisher Scientific), 0.1% BSA (Sigma-Aldrich), 2.5 μg/mL Fluo-4 AM (DOJINDO Chemical), 0.08% Pluronic F127 (DOJINDO Chemical), 1.25 mM probenecid (DOJINDO Chemical)) was added at 30 μL/well. The plate was stood for 30 min in a 5% CO2 incubator at 37° C., and further stood at room temperature for 30 min. A test compound prepared by diluting with assay buffer B (HBSS, 20 mM HEPES, 0.1% BSA) was added at 10 μL/well, and the fluorescence value was measured by FDSSpCELL (Hamamatsu Photonics K.K.) every one sec for 1 min, and thereafter every two sec for 1 min 40 sec. The activity (%) of the test compound was calculated assuming that variation in the fluorescence value when DMSO was added instead of the test compound was 0%, and variation in the fluorescence value when orexin A (human) (PEPTIDE INSTITUTE, INC.) was added at the final concentration of 10 nM was 100%.

SMILES strings stand for the structures.

Take `Cc1ccc2n(c1=O)C(Cc1cccc(-c3cccc(F)c3)c1)C(NC(=O)[C@@H]1CCCO1)CC2` (mixture of isomers) [Example 26, (2S)-N-{(3SR,4SR)-4-[(3′-fluoro[1,1′-biphenyl]-3-yl)methyl]-7-methyl-6-oxo-1,3,4,6-tetrahydro-2H-quinolizin-3-yl}oxolane-2-carboxamide]: the “0X2R agonist activity (3 μM, %)” value came to 101%.
Consider `Cn1cc2n(c1=O)C(Cc1cccc(-c3ccccc3)c1)C(NC(=O)[C@@H]1CCCO1)CC2` (mixture of isomers) [Example 205, (2S)-N-{(5SR,6SR)-5-[([1,1′-biphenyl]-3-yl)methyl]-2-methyl-3-oxo-2,3,5,6,7,8-hexahydroimidazo[1,5-a]pyridin-6-yl}oxolane-2-carboxamide], for which the “0X2R agonist activity (3 μM, %)” value stood at 81%.
`CS(=O)(=O)N[C@H]1CCc2cccc(=O)n2[C@H]1Cc1cccc(-c2ccccc2)c1` (racemic) [Example 1, rac-N-{(3S,4S)-4-[([1,1′-biphenyl]-3-yl)methyl]-6-oxo-1,3,4,6-tetrahydro-2H-quinolizin-3-yl}methanesulfonamide]: the “0X2R agonist activity (3 μM, %)” value is reported as 79%.
As for `Cc1ccc(=O)n2c1CC[C@H](NS(C)(=O)=O)[C@@H]2Cc1cccc(-c2ccccc2)c1` (racemic) [Example 8, rac-N-{(3S,4S)-4-[([1,1′-biphenyl]-3-yl)methyl]-9-methyl-6-oxo-1,3,4,6-tetrahydro-2H-quinolizin-3-yl}methanesulfonamide], the “0X2R agonist activity (3 μM, %)” value is 97%.
For the molecule `CCS(=O)(=O)NC1CCc2ccc(C)c(=O)n2C1Cc1cccc(-c2ccccc2)c1` (racemic) [Example 11, rac-N-{(3S,4S)-4-[([(1,1′-biphenyl]-3-yl)methyl]-7-methyl-6-oxo-1,3,4,6-tetrahydro-2H-quinolizin-3-yl}ethanesulfonamide], the “0X2R agonist activity (3 μM, %)” value is reported as 106%.
`CS(=O)(=O)NC1CCc2ccc(C(F)(F)F)c(=O)n2C1Cc1cccc(-c2ccccc2)c1` (racemic) [Example 12, rac-N-[(3S,4S)-4-[([1,1′-biphenyl]-3-yl]methyl-6-oxo-7-(trifluoromethyl)-1,3,4,6-tetrahydro-2H-quinolizin-3-yl]methanesulfonamide]: the “0X2R agonist activity (3 μM, %)” value came out at 112%.
As to `Cc1cc(C)c(=O)n2c1CC[C@H](NS(C)(=O)=O)[C@@H]2Cc1cccc(-c2ccccc2)c1` (racemic) [Example 13, rac-N-{(3S,4S)-4-[([1,1′-biphenyl]-3-yl)methyl]-7,9-dimethyl-6-oxo-1,3,4,6-tetrahydro-2H-quinolizin-3-yl}methanesulfonamide], the “0X2R agonist activity (3 μM, %)” value turned out to be 112%.
`Cc1cc2n(c(=O)c1)[C@@H](Cc1cccc(-c3ccccc3)c1)[C@@H](NS(C)(=O)=O)CC2` (racemic) [Example 14, rac-N-{(3S,4S)-4-[([1,1′-biphenyl]-3-yl)methyl]-8-methyl-6-oxo-1,3,4,6-tetrahydro-2H-quinolizin-3-yl}methanesulfonamide]: the “0X2R agonist activity (3 μM, %)” value turned out to be 107%.
The result for `CS(=O)(=O)N[C@H]1CCc2ccc(Cl)c(=O)n2[C@H]1Cc1cccc(-c2ccccc2)c1` (racemic) [Example 15, rac-N-{(3S,4S)-4-[([1,1′-biphenyl]-3-yl)methyl]-7-chloro-6-oxo-1,3,4,6-tetrahydro-2H-quinolizin-3-yl}methanesulfonamide] reads 106%; that for `CS(=O)(=O)N[C@H]1CCc2ccc(F)c(=O)n2[C@H]1Cc1cccc(-c2ccccc2)c1` (racemic) [Example 16, rac-N-{(3S,4S)-4-[([1,1′-biphenyl]-3-yl)methyl]-7-fluoro-6-oxo-1,3,4,6-tetrahydro-2H-quinolizin-3-yl}methanesulfonamide], 95%.
With `Cc1cc2n(c(=O)c1C)[C@@H](Cc1cccc(-c3ccccc3)c1)[C@@H](NS(C)(=O)=O)CC2` (racemic) [Example 19, rac-N-{(3S,4S)-4-[([1,1′-biphenyl]-3-yl)methyl]-7,8-dimethyl-6-oxo-1,3,4,6-tetrahydro-2H-quinolizin-3-yl}methanesulfonamide], the “0X2R agonist activity (3 μM, %)” value turned out to be 122%.
For the molecule `Cc1cc(=O)n2c(c1C)CC[C@H](NS(C)(=O)=O)[C@@H]2Cc1cccc(-c2ccccc2)c1` (racemic) [Example 20, rac-N-{(3S,4S)-4-[([1,1′-biphenyl]-3-yl)methyl]-8,9-dimethyl-6-oxo-1,3,4,6-tetrahydro-2H-quinolizin-3-yl}methanesulfonamide], the “0X2R agonist activity (3 μM, %)” value came out at 113%.
As to `Cc1cc(F)c2n(c1=O)[C@@H](Cc1cccc(-c3ccccc3)c1)[C@@H](NS(C)(=O)=O)CC2` (racemic) [Example 21, rac-N-{(3S,4S)-4-[([1,1′-biphenyl]-3-yl)methyl]-9-fluoro-7-methyl-6-oxo-1,3,4,6-tetrahydro-2H-quinolizin-3-yl}methanesulfonamide], the “0X2R agonist activity (3 μM, %)” value stood at 101%.
As to `CS(=O)(=O)N[C@H]1CCc2ccc(C3CC3)c(=O)n2[C@H]1Cc1cccc(-c2ccccc2)c1` (racemic) [Example 22, rac-N-{(3S,4S)-4-[([1,1′-biphenyl]-3-yl)methyl]-7-cyclopropyl-6-oxo-1,3,4,6-tetrahydro-2H-quinolizin-3-yl}methanesulfonamide], the “0X2R agonist activity (3 μM, %)” value is listed as 106%.
As for `CCc1ccc2n(c1=O)C(Cc1cccc(-c3ccccc3)c1)C(NS(C)(=O)=O)CC2` (racemic) [Example 27, rac-N-{(3S,4S)-4-[([1,1′-biphenyl]-3-yl)methyl]-7-ethyl-6-oxo-1,3,4,6-tetrahydro-2H-quinozilin-3-yl}methanesulfonamide], the “0X2R agonist activity (3 μM, %)” value is recorded as 99%.
Take `CS(=O)(=O)N[C@H]1CCc2ccc(C#N)c(=O)n2[C@H]1Cc1cccc(-c2ccccc2)c1` (racemic) [Example 28, rac-N-{(3S,4S)-4-[([1,1′-biphenyl]-3-yl)methyl]-7-cyano-6-oxo-1,3,4,6-tetrahydro-2H-quinolizin-3-yl}methanesulfonamide]: the “0X2R agonist activity (3 μM, %)” value is 97%.
As for `CN(C)c1ccc2n(c1=O)[C@@H](Cc1cccc(-c3ccccc3)c1)[C@@H](NS(C)(=O)=O)CC2` (racemic) [Example 31, rac-N-[(3S,4S)-4-[([1,1′-biphenyl]-3-yl)methyl]-7-(dimethylamino)-6-oxo-1,3,4,6-tetrahydro-2H-quinolizin-3-yl]methanesulfonamide], the “0X2R agonist activity (3 μM, %)” value was 100%.
The result for `CC(C)(O)c1ccc2n(c1=O)[C@@H](Cc1cccc(-c3ccccc3)c1)[C@@H](NS(C)(=O)=O)CC2` (racemic) [Example 33, rac-N-[(3S,4S)-4-[([1,1′-biphenyl]-3-yl)methyl]-7-(2-hydroxypropan-2-yl)-6-oxo-1,3,4,6-tetrahydro-2H-quinolizin-3-yl]methanesulfonamide] reads 87%.
Consider `COc1ccc2n(c1=O)[C@@H](Cc1cccc(-c3ccccc3)c1)[C@@H](NS(C)(=O)=O)CC2` (racemic) [Example 34, rac-N-{(3S,4S)-4-[([1,1′-biphenyl]-3-yl)methyl]-7-methoxy-6-oxo-1,3,4,6-tetrahydro-2H-quinolizin-3-yl}methanesulfonamide], for which the “0X2R agonist activity (3 μM, %)” value is recorded as 105%.
As to `CCc1ccc2n(c1=O)C(Cc1cccc(-c3cccc(F)c3)c1F)C(NC(=O)C(=O)N(C)C)CC2` (racemic) [Example 39, rac-N~2~-{(3S,4S)-4-[2,3′-difluoro[1,1′-biphenyl]-3-yl)methyl]-7-ethyl-6-oxo-1,3,4,6-tetrahydro-2H-quinolizin-3-yl}-N~1~,N~1~-dimethylethanediamide], the “0X2R agonist activity (3 μM, %)” value is 89%.
In the case of `CC(C)c1ccc2n(c1=O)[C@@H](Cc1cccc(-c3cccc(F)c3)c1F)[C@@H](NC(=O)C(=O)N(C)C)CC2` (racemic) [Example 40, rac-N~2~-[(3S,4S)-4-[(2,3′-difluoro[1,1′-biphenyl]-3-yl)methyl]-6-oxo-7-(propan-2-yl)-1,3,4,6-tetrahydro-2H-quinolizin-3-yl]-N~1~,N~1~-dimethylethanediamide], the “0X2R agonist activity (3 μM, %)” value stood at 93%.
As to `Cn1ccc2c(c1=O)[C@@H](Cc1cccc(-c3ccccc3)c1)[C@@H](NS(C)(=O)=O)CC2` (racemic) [Example 46, rac-N-{(7S,8R)-8-[([1,1′-biphenyl]-3-yl)methyl]-2-methyl-1-oxo-1,2,5,6,7,8-hexahydroisoquinolin-7-yl}methanesulfonamide], the “0X2R agonist activity (3 μM, %)” value amounted to 102%.
